Where two headings read alike, the source gives them in different places. Non-standard residues stand in square brackets, D forms with d. Residues, ends and D or L forms follow the SMILES beside them. *: point of attachment. Phe(F5) = N[C@@H](Cc1c(F)c(F)c(F)c(F)c1F)C(=O)O; Desaminotyrosyl = O=C(CCc1ccc(O)cc1)*; NMeY = CN[C@@H](Cc1ccc(O)cc1)C(=O)O; Agmatine = N=C(N)NCCCCN*; Nle = CCCC[C@H](N)C(=O)O; Orn = NCCC[C@H](N)C(=O)O; Abu = CC[C@H](N)C(=O)O; GABA = NCCCC(=O)O
Tests used:
[1] = molecular target: T1, GHRH receptor (human pituitary membrane homogenates) (Homo sapiens, UniProt Q02643); test: GHRH receptor binding, ligand competition with 125I-labeled JV-1-42 (Table 7); set-up: Normal human pituitaries were purchased from the National Hormone and Peptide Program; tissue National Hormone and Peptide Program (A. F. Parlow, Harbor-UCLA Medical Center, Torrance, Calif.); host or cells: normal human pituitary, membrane fraction / homogenate; settings: JI-38 = 1
T1 sequence (Q02643 23-423): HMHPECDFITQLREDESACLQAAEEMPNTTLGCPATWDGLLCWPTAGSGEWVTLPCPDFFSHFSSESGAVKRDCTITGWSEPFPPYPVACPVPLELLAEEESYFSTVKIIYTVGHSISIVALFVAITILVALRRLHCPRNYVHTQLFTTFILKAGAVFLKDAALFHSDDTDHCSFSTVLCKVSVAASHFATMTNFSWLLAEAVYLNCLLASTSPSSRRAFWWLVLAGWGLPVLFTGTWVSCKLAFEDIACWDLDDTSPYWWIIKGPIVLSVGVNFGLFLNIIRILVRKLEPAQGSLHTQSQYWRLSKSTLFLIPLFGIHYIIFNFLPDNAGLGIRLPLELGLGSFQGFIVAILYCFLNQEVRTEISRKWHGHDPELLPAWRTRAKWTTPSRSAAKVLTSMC

[2] = molecular target: T1, GHRH receptor (human pituitary membrane homogenates); test: GHRH receptor binding, ligand competition with 125I-labeled JV-1-42 (Table 5); settings: for Relative affinitiy (Binding potency) vs GHRH: GHRH(1-29) = 1; for Relative affinitiy (Binding potency) vs JI-38: JI-38 = 1
From the text: Normal human pituitaries were purchased from the National Hormone and Peptide Program (A. F. Parlow, Los Angeles, County Harbor-UCLA Medical Center, Torrance, Calif.).

[3] = molecular target: T1, GHRH receptor (human pituitary membrane homogenates); test: GHRH receptor binding, ligand competition with 125I-labeled [His1,Nle27]hGHRH(1-32)NH2 (Table 6)
rat pituitary cells = test: GH release in superfused rat pituitary cell system; assay type: cell-based; settings: 1 nM, 3-min pulse; for GH Response (ng/ml) Average: average of runs; for GH Response (ng/ml) 1: run 1; for GH Response (ng/ml) 2: run 2
Protocol: Growth hormone releasing activity. Growth hormone releasing was assayed by using a superfused rat pituitary cell system as described in S. Vigh and A. V. Schally, Peptides 5, Suppl: 241-347, 1984. The new synthetic peptide analog of hGHRH P20356 and JI-38 (as control) were administered for 3 minutes (1 mL perfusate) at 1 nM concentration as shown below. Fractions of 1 ml are collected and the GH content in each was determined by ELISA.
Pituitary cells from 2 male rats were used for each channel of the superfusion system. The cells were exposed to 3-min pulses of the new GHRH agonists or to JI-38 as standard every 30 min. Outflowing samples of each channel (1 ml) were collected every 3 min, and GH levels were determined by ELISA.

INS-1 cells = test: INS-1 proliferation (BrdU Cell Proliferation Assay); assay type: cell-based, rat; settings: different concentrations, 24 h, 48 h and 72 h
Protocol: For determination of proliferation activity, BrdU incorporation was performed in INS-1 cells following exposure to P-27403. Proliferation was measured using BrdU Cell Proliferation Assay (Millipore) following the manufacturer's description. The maximal enhancement in proliferation rate of 16% compared to control was found at 10^−8 M concentration of P-27403 (FIG. 1C).
INS-1 cells were grown for 72 h before experimentation. Cells were treated with GHRH agonists MR356, MR367, and MR403 at different concentrations or with 0.1% (vol/vol) DMSO as control for 24 h, 48 h and 72 h. Proliferation was measured using BrdU Cell Proliferation Assay (Millipore) following the manufacturer's description.

GH level [4] = test: In vivo endocrine activity (GH release), subcutaneous administration; settings: rat, s.c.
Protocol: Subcutaneous Administration. Adult male rats were used and anesthetized with pentobarbital (6 mg/100 g, b.w.), by i.p. injection. […] Blood samples were taken from the jugular vein 5, 15 and/or 30 minutes after the injection. The blood samples were centrifuged, plasma was removed and the GH level was measured by ELISA. The results are summarized in terms of potency in Table 9.

GH level [5] = test: In vivo endocrine activity (GH release), intravenous administration; settings: rat
Protocol: In vivo tests on endocrine activity of new GHRH agonists (Intravenous administration). For in vivo tests based on intravenous administration, adult male Sprague-Dawley rats were anesthetized with pentobarbital (6 mg/100/g, b.w.), and GHRH agonists were injected 20 minutes after the injection of pentobarbital. Blood samples were taken from the jugular vein (pretreated level), immediately after hGHRH(1-29)NH2 injection (as a control) or after hGHRH analogs injection. Blood samples were taken from the jugular vein 5, 15 and 30 minutes after the injection. The blood samples were centrifuged, plasma was removed and the GH level was measured by ELISA.

[6] = molecular target: T2, GHRH receptor in human pituitary membrane homogenates (human, UniProt Q02643); test: ligand competition, 125I-JV-1-42 displaced, human pituitary membranes
T2 sequence: T1 sequence (Q02643 23-423)

[7] = molecular target: T2, GHRH receptor in human pituitary …; test: as above; remark: listed apart in the source
[8] = fraction 1 (P-20356) / 21 (JI-38)
[9] = fraction 2 (P-20356) / 22 (JI-38)
[10] = fraction 3 (P-20356) / 23 (JI-38)
[11] = fraction 4 (P-20356) / 24 (JI-38)
[12] = fraction 5 (P-20356) / 25 (JI-38)

CCCC[C@H](NC(=O)[C@@H](NC(=O)[C@H](CC(=O)O)NC(=O)[C@H](CCC(N)=O)NC(=O)[C@H](CC(C)C)NC(=O)[C@H](CC(C)C)NC(=O)[C@H](CCCN)NC(=O)[C@H](CCCNC(=N)N)NC(=O)[C@H](C)NC(=O)[C@H](CO)NC(=O)[C@H](CC(C)C)NC(=O)[C@H](CCC(N)=O)NC(=O)[C@H](CC)NC(=O)[C@H](CC(C)C)NC(=O)[C@@H](NC(=O)[C@H](CCCN)NC(=O)[C@H](CCCNC(=N)N)NC(=O)[C@H](Cc1ccc(O)cc1)NC(=O)[C@H](CO)NC(=O)[C@H](CCC(N)=O)NC(=O)[C@@H](NC(=O)[C@H](Cc1ccccc1)NC(=O)[C@@H](NC(=O)[C@H](C)NC(=O)[C@H](CC(=O)O)NC(=O)[C@H](C)NC(=O)CCc1ccc(O)cc1)[C@@H](C)CC)[C@@H](C)O)C(C)C)[C@@H](C)CC)C(=O)N[C@@H](CC(=O)O)C(=O)NCCCCNC(=N)N [JI-38, reference compound] (Desaminotyrosyl-ADAIFTQSYR[Orn]VL[Abu]QLSAR[Orn]LLQDI[Nle]D-Agmatine)
Relative affinitiy (Binding potency) vs JI-38 [1]: 1
Relative affinitiy (Binding potency) vs GHRH [2]: 2.4
Relative affinitiy (Binding potency) vs JI-38 [2]: 1
Relative affinitiy (Binding potency) vs GHRH ([3]; GHRH(1-29) = 1): 3.03
Relative affinitiy (Binding potency) vs JI-38 ([3]; JI-38 = 1): 1
GH Response (ng/ml) Average (rat pituitary cells; [8]): 49.27 ng/mL
GH Response (ng/ml) Average (rat pituitary cells; [9]): 131.71 ng/mL
GH Response (ng/ml) Average (rat pituitary cells; [10]): 194.68 ng/mL
GH Response (ng/ml) Average (rat pituitary cells; [11]): 137.45 ng/mL
GH Response (ng/ml) Average (rat pituitary cells; [12]): 96.70 ng/mL
GH Response (ng/ml) 1 (rat pituitary cells; [8]): 42.46 ng/mL
GH Response (ng/ml) 1 (rat pituitary cells; [9]): 143.58 ng/mL
GH Response (ng/ml) 1 (rat pituitary cells; [10]): 222.13 ng/mL
GH Response (ng/ml) 1 (rat pituitary cells; [11]): 142.96 ng/mL
GH Response (ng/ml) 1 (rat pituitary cells; [12]): 96.34 ng/mL
GH Response (ng/ml) 2 (rat pituitary cells; [8]): 56.07 ng/mL
GH Response (ng/ml) 2 (rat pituitary cells; [9]): 119.83 ng/mL
GH Response (ng/ml) 2 (rat pituitary cells; [10]): 167.23 ng/mL
GH Response (ng/ml) 2 (rat pituitary cells; [11]): 131.93 ng/mL
GH Response (ng/ml) 2 (rat pituitary cells; [12]): 97.05 ng/mL

CCCC[C@H](NC(=O)[C@@H](NC(=O)[C@H](CC(=O)O)NC(=O)[C@H](CCC(N)=O)NC(=O)[C@H](CC(C)C)NC(=O)[C@H](CC(C)C)NC(=O)[C@H](CCCN)NC(=O)[C@H](CCCNC(=N)N)NC(=O)[C@H](C)NC(=O)[C@H](CO)NC(=O)[C@H](CC(C)C)NC(=O)[C@H](CCC(N)=O)NC(=O)[C@H](CC)NC(=O)[C@H](CC(C)C)NC(=O)[C@@H](NC(=O)[C@H](CCCN)NC(=O)[C@H](CCCNC(=N)N)NC(=O)[C@H](Cc1ccc(O)cc1)NC(=O)[C@H](CO)NC(=O)[C@H](CC(N)=O)NC(=O)[C@@H](NC(=O)[C@H](Cc1ccccc1)NC(=O)[C@@H](NC(=O)[C@H](C)NC(=O)[C@H](CC(=O)O)NC(=O)[C@@H](C)NC(=O)[C@H](Cc1ccc(O)cc1)NC)[C@@H](C)CC)[C@@H](C)O)C(C)C)[C@@H](C)CC)C(=O)N[C@@H](CC(=O)O)C(=O)NCCCCNC(=N)N [Peptide P-20367, [N—Me-Tyr^1, D-Ala^2, Orn^12, Abu^15, Orn^21, Nle^27, Asp^28, Agm^29]hGHRH(1-29)] (H-[NMeY][dA]DAIFTNSYR[Orn]VL[Abu]QLSAR[Orn]LLQDI[Nle]D-Agmatine)
Cell proliferation compared to control (INS-1 cells): significantly induced cell proliferation
Relative affinitiy (Binding potency) vs JI-38 [1]: 2.56

CCCC[C@H](NC(=O)[C@@H](NC(=O)[C@H](CC(=O)O)NC(=O)[C@H](CCC(N)=O)NC(=O)[C@H](CC(C)C)NC(=O)[C@H](CC(C)C)NC(=O)[C@H](CCCN)NC(=O)[C@H](CCCNC(=N)N)NC(=O)[C@H](C)NC(=O)[C@H](CO)NC(=O)[C@H](CC(C)C)NC(=O)[C@H](CCC(N)=O)NC(=O)[C@H](CC)NC(=O)[C@H](CC(C)C)NC(=O)[C@@H](NC(=O)[C@H](CCCN)NC(=O)[C@H](CCCNC(=N)N)NC(=O)[C@H](Cc1ccc(O)cc1)NC(=O)[C@H](CO)NC(=O)[C@H](CC(N)=O)NC(=O)[C@@H](NC(=O)[C@H](Cc1c(F)c(F)c(F)c(F)c1F)NC(=O)[C@@H](NC(=O)[C@H](C)NC(=O)[C@H](CC(=O)O)NC(=O)[C@@H](C)NC(=O)CCc1ccc(O)cc1)[C@@H](C)CC)[C@@H](C)O)C(C)C)[C@@H](C)CC)C(=O)N[C@@H](CO)C(=O)N[C@@H](CCCNC(=N)N)C(=O)NCCCC(N)=O [Peptide P-25502, [Dat^1, D-Ala^2, Fpa5^6, Orn^12, Abu^15, Orn^21, Nle^27, Gab^30]hGHRH(1-30)NH2] (Desaminotyrosyl-[dA]DAI[Phe(F5)]TNSYR[Orn]VL[Abu]QLSAR[Orn]LLQDI[Nle]SR[GABA]-NH2)
Relative affinitiy (Binding potency) vs JI-38 [1]: 13.18
Relative affinitiy (Binding potency) vs GHRH [2]: 58.0
Relative affinitiy (Binding potency) vs JI-38 [2]: 24.4
Stimulation of growth hormone levels after s.c. administration (comparison in words) (GH level [4]): stimulated greater growth hormone levels than hGHRH or JI-38
Stimulation of growth hormone levels after i.v. administration (comparison in words) (GH level [5]): most potent

B1: [Dat1, D-Ala2, Gln8, Orn12, Abu15, Orn21, Nle27, Asp28, Agm29]hGHRH(1-29) (peptide)
peptide: [Desaminotyrosyl][dA]DAIFTQSYR[Orn]VL[Abu]QLSAR[Orn]LLQDI[Nle]D[Agmatine]
SMILES: CCCC[C@H](NC(=O)[C@@H](NC(=O)[C@H](CC(=O)O)NC(=O)[C@H](CCC(N)=O)NC(=O)[C@H](CC(C)C)NC(=O)[C@H](CC(C)C)NC(=O)[C@H](CCCN)NC(=O)[C@H](CCCNC(=N)N)NC(=O)[C@H](C)NC(=O)[C@H](CO)NC(=O)[C@H](CC(C)C)NC(=O)[C@H](CCC(N)=O)NC(=O)[C@H](CC)NC(=O)[C@H](CC(C)C)NC(=O)[C@@H](NC(=O)[C@H](CCCN)NC(=O)[C@H](CCCNC(=N)N)NC(=O)[C@H](Cc1ccc(O)cc1)NC(=O)[C@H](CO)NC(=O)[C@H](CCC(N)=O)NC(=O)[C@@H](NC(=O)[C@H](Cc1ccccc1)NC(=O)[C@@H](NC(=O)[C@H](C)NC(=O)[C@H](CC(=O)O)NC(=O)[C@@H](C)NC(=O)CCc1ccc(O)cc1)[C@@H](C)CC)[C@@H](C)O)C(C)C)[C@@H](C)CC)C(=O)N[C@@H](CC(=O)O)C(=O)NCCCCNC(=N)N
IC50 [6]: 520 pM
relative affinity (binding potency) vs JI-38 [6]: 8.37 JI-38 = 1
IC50 [7]: 40 pM
relative affinity (binding potency) vs GHRH [7]: 102 GHRH(1-29) = 1
relative affinity (binding potency) vs JI-38 [7]: 42.7 JI-38 = 1

Reference: patent US9393271B2, “GHRH agonists for islet cell transplantation and function and the treatment of diabetes” (UNIVERSITY OF MIAMI, priority 2012, dated 2016)
